Assay results from article PMC314469, “Protein Interaction Networks by Proteome Peptide Scanning” (PLoS Biology, 2004).

Tested on: Myo5 SH3 domain
Assay: SPOT analysis of cellulose-bound peptides (WISE), Myo5 SH3 domain (Dataset S4)
Assay type: binding, Saccharomyces cerevisiae
Conditions: for The normalized value in BLU units: Myo5 SH3 domain
[1] = SPOT analysis of cellulose-bound peptides probed with Myo5 SH3 domain, normalized value
[2] = SPOT analysis of cellulose-bound 14-mer yeast proteome peptides, normalized value, mean where the peptide was synthesized more than once
[3] = SPOT analysis of membrane-bound peptides, normalized value (see methods)
[4] = SPOT analysis of membrane-synthesized peptides probed with Myo5 SH3 domain, normalized value

PEDFLPPPPKPHFA
The normalized value in BLU units (SPOT analysis, Myo5 SH3) [1]: 125.8 BLU

PEGVFCIPAPPPNV
The normalized value in BLU units [2]: 82.5 BLU

PEHLFNNPQNPMDF
The normalized value in BLU units [2]: 157.1 BLU

PELAKNSPLAPIKK
The normalized value in BLU units [3]: 125.2 BLU

PEPTMGSPDAPPLV
The normalized value in BLU units [2]: 106.8 BLU

PESAKCNPNSPRLK
The normalized value in BLU units [3]: 253.0 BLU

PETRMDLPFSPEVN
The normalized value in BLU units (SPOT analysis, Myo5 SH3) [1]: 130.3 BLU

PEVHHHCPGVPCLV
The normalized value in BLU units (SPOT analysis, Myo5 SH3) [1]: 331.3 BLU

PEVKHFCPSTPIML
The normalized value in BLU units (SPOT analysis, Myo5 SH3) [1]: 93.7 BLU

PEVLMDQPYSPLSD
The normalized value in BLU units (SPOT analysis, Myo5 SH3) [1]: 78.7 BLU

PEWRRPHPNIPDAK
The normalized value in BLU units [3]: 182.7 BLU

PFGTFTLPADPEYK
The normalized value in BLU units [2]: 171.6 BLU

PFIDYEFPHLPNEL
The normalized value in BLU units [2]: 98.9 BLU

PFIRRYTPLKPITK
The normalized value in BLU units (SPOT analysis, Myo5 SH3) [4]: 649.2 BLU

PFLIKFTPKFPQSI
The normalized value in BLU units (SPOT analysis, Myo5 SH3) [4]: 974.5 BLU

PFSSMKEPFIPQSS
The normalized value in BLU units (SPOT analysis, Myo5 SH3) [1]: 410.6 BLU

PFYTMPDPANPKYS
The normalized value in BLU units (SPOT analysis, Myo5 SH3) [1]: 145.1 BLU

PGGPKFEPLYPREE
The normalized value in BLU units (SPOT analysis, Myo5 SH3) [4]: 90.0 BLU

PHFAKHSPDSPRTS
The normalized value in BLU units [3]: 236.2 BLU

PIGSRYNPNLPVTE
The normalized value in BLU units [3]: 187.4 BLU

PIRLRKRPPPPPPV
The normalized value in BLU units [3]: 60274.0 BLU

PIVKKNVPKPPPLV
The normalized value in BLU units (SPOT analysis, Myo5 SH3) [4]: 153.6 BLU

PKCEKIEPLSPSFK
The normalized value in BLU units (SPOT analysis, Myo5 SH3) [4]: 116.4 BLU

PKHIRNEPVKPFRN
The normalized value in BLU units (SPOT analysis, Myo5 SH3) [4]: 360.9 BLU

PKKSRVLPPLPFPL
The normalized value in BLU units [2]: 3587.4 BLU

PKSPKAYPKLPDIQ
The normalized value in BLU units (SPOT analysis, Myo5 SH3) [4]: 357.2 BLU

PKTGKPLPTQPSSS
The normalized value in BLU units (SPOT analysis, Myo5 SH3) [4]: 193.3 BLU

PLAPLPPPPPPSVA
The normalized value in BLU units (SPOT analysis, Myo5 SH3) [1]: 4747.6 BLU

PLFGLSIPKTPTLK
The normalized value in BLU units (SPOT analysis, Myo5 SH3) [1]: 121.7 BLU

PLNQLPNPAMPLLH
The normalized value in BLU units (SPOT analysis, Myo5 SH3) [1]: 104.2 BLU

PLPTFSAPSLPQQS
The normalized value in BLU units [2]: 46960.5 BLU

PLRERIIPILPANS
The normalized value in BLU units [2]: 175.1 BLU

PLTTLPPPRLPSIQ
The normalized value in BLU units [2]: 2788.2 BLU

PNPLKKAPIPPLAY
The normalized value in BLU units [3]: 137.2 BLU

PPEGFPEPLNPTNF
The normalized value in BLU units (SPOT analysis, Myo5 SH3) [1]: 86.0 BLU

PPKLLVYPESPETN
The normalized value in BLU units [2]: 91.3 BLU

PPLDFEQPRLPSTA
The normalized value in BLU units (SPOT analysis, Myo5 SH3) [1]: 192.3 BLU

PPLPRAPPVPPATF
The normalized value in BLU units (SPOT analysis, Myo5 SH3) [4]: 35914.7 BLU

PPMAYNRPVYPPPQ
The normalized value in BLU units [2]: 6717.1 BLU

PPNYKQQPNCPSSN
The normalized value in BLU units (SPOT analysis, Myo5 SH3) [4]: 147.5 BLU

PPPDFNDPTAPLSS
The normalized value in BLU units [2]: 152.8 BLU

PPPPLPPPLFPSSS
The normalized value in BLU units (SPOT analysis, Myo5 SH3) [1]: 38483.6 BLU

PPPPMGQPKDPKFE
The normalized value in BLU units (SPOT analysis, Myo5 SH3) [1]: 248.1 BLU

PPPPPPPPPVPA
The normalized value in BLU units (SPOT analysis, Myo5 SH3) [1]: 95729 BLU

PPPPRRGPAPPPPP
The normalized value in BLU units [3]: 15026.4 BLU

PPQMRSNPQQPPQD
The normalized value in BLU units (SPOT analysis, Myo5 SH3) [4]: 268.2 BLU

PPQTHQSPPPPPQQ
The normalized value in BLU units (SPOT analysis, Myo5 SH3) [1]: 222.2 BLU

PPRFKNFPTLPSKI
The normalized value in BLU units [3]: 634.0 BLU

PPSIRKQPIAPDVL
The normalized value in BLU units (SPOT analysis, Myo5 SH3) [4]: 150.3 BLU

PQQNRPLPQLPNRN
The normalized value in BLU units [3]: 186.1 BLU

PQTMRQAPKRPDAD
The normalized value in BLU units (SPOT analysis, Myo5 SH3) [4]: 3257.1 BLU

PRSKKKKPAPPTLL
The normalized value in BLU units [3]: 412.9 BLU

PSAMKLVPSIPPAT
The normalized value in BLU units (SPOT analysis, Myo5 SH3) [4]: 561.3 BLU

PSHYRNIPYNPATF
The normalized value in BLU units [3]: 174.8 BLU

PSRSKSNPILPIMR
The normalized value in BLU units [2]: 522.7 BLU

PSSHKRKPVIPWDA
The normalized value in BLU units [3]: 289.2 BLU

PSSKKNKPNPPPGS
The normalized value in BLU units (SPOT analysis, Myo5 SH3) [4]: 106.9 BLU

PTANKYAPVSPTVQ
The normalized value in BLU units [3]: 191.4 BLU

PTVQKFSPHPPTTL
The normalized value in BLU units [3]: 213.4 BLU

PVPVRMQPQPPQPM
The normalized value in BLU units [3]: 187.8 BLU

PVRCRVLPATPRQI
The normalized value in BLU units (SPOT analysis, Myo5 SH3) [4]: 1474.0 BLU

PYMYKYLPRFPNLK
The normalized value in BLU units [2]: 382.1 BLU

QASMLRRPSLPHID
The normalized value in BLU units (SPOT analysis, Myo5 SH3) [1]: 1102.4 BLU

QATGRRGPAPPPPP
The normalized value in BLU units (SPOT analysis, Myo5 SH3) [4]: 607.2 BLU

QEISLIDPSTPDKA
The normalized value in BLU units [2]: 155.1 BLU

QELPMEVPKEPAPA
The normalized value in BLU units (SPOT analysis, Myo5 SH3) [1]: 138.8 BLU

QELPRAIPVMPFVD
The normalized value in BLU units [3]: 118.1 BLU

QELRFLVPLVPLLV
The normalized value in BLU units (SPOT analysis, Myo5 SH3) [1]: 119.1 BLU

QENPYIIPLPPSST
The normalized value in BLU units (SPOT analysis, Myo5 SH3) [1]: 240.4 BLU

QFALKNTPITPGSC
The normalized value in BLU units [3]: 111.3 BLU

QFQKLVPPTLPENV
The normalized value in BLU units [2]: 153.9 BLU
